The molecules below were run against PI3K-alpha enzyme (Homo sapiens (Human), UniProt P42336) (assay: PI3-Kinase (human) HTRF Assay kit, PI3K alpha enzyme IC50 determination). Conditions: ATP 10 μM, PIP2 10 μM, 1% DMSO, 30 min at room temperature, double holes per concentration, read-out: half inhibitory concentration (IC50) on PI3K-alpha.
Assay type: biochemical
Method: • 4× Reaction Buffer was diluted to 1× with ddH2O, and 1M DTT was added to make the final concentration of 5 mM. Prepare fresh before each use. For example, to prepare 10 mL 1× Reaction Buffer, adding 2.5 mL 4× Reaction Buffer, 50 μL 1 M DTT, and 7.45 mL ddH2O. Throughout the experiment, freshly prepared 1× Reaction Buffer was used to prepare ATP working solution, substrate and enzyme mixed working solution, etc.
• The compound to be tested was dissolved in DMSO to 1 mM as a storage solution, and then diluted with DMSO in a 4-fold ratio for a total of 10 concentration points. 1 μL of each was added to 24 μL 1× Reaction Buffer. 5 μL of each diluted solution was added into a 384-well plate and contained 1% DMSO.
• 1× reaction buffer was used to prepare 2×PIP2 working solution to make the final concentration of 20 μM and PIP2 reaction final concentration of 10 μM, for example, to prepare 1 ml 1× reaction buffer/PIP2 working solution, add 20 μL of PIP2 to 980 μL 1× reaction buffer. This working solution should be prepared with 0.1-0.2 ml more to meet the control usage and dead volume.
• The kinase was diluted with 2×PIP2 working solution, and the concentration of the kinase working solution was 10 ng/well.
• That is, 2×PIP2 working solution.
• 10 mM ATP was diluted to 40 μM with 1× reaction buffer. In a 20 μL kinase reaction system, the concentration of ATP was 10 μM. For example, to prepare 2 ml ATP working solution, take 8 μL 10 mM ATP and add it to 1992 μL 1× reaction buffer.
• Stop A and Stop B were mixed in a ratio of 3:1 and can be used after at least 2 hours at room temperature.
• DM C, DM A and DM B were mixed in a ratio of 18:1:1, and can be used after at least 2 hours at room temperature.
• Emission Ratio (ER)=[…] Emission signal/620 nm Emission signal • The average emission intensity ratio (Emission Ratio) of the 100% inhibition control is recorded as: ER100% • The average Emission Ratio of the 0% inhibition control is recorded as: ER0%
• The inhibition rate is calculated with the following formula: Inhibition rate=(ERsample−ER0%)/(ER100%−ER0%)×100% [(ERpositive−ERsample)/(ERpositive−ERnegative)*100%]

PI3K-alpha enzyme, sequence (P42336 whole entry): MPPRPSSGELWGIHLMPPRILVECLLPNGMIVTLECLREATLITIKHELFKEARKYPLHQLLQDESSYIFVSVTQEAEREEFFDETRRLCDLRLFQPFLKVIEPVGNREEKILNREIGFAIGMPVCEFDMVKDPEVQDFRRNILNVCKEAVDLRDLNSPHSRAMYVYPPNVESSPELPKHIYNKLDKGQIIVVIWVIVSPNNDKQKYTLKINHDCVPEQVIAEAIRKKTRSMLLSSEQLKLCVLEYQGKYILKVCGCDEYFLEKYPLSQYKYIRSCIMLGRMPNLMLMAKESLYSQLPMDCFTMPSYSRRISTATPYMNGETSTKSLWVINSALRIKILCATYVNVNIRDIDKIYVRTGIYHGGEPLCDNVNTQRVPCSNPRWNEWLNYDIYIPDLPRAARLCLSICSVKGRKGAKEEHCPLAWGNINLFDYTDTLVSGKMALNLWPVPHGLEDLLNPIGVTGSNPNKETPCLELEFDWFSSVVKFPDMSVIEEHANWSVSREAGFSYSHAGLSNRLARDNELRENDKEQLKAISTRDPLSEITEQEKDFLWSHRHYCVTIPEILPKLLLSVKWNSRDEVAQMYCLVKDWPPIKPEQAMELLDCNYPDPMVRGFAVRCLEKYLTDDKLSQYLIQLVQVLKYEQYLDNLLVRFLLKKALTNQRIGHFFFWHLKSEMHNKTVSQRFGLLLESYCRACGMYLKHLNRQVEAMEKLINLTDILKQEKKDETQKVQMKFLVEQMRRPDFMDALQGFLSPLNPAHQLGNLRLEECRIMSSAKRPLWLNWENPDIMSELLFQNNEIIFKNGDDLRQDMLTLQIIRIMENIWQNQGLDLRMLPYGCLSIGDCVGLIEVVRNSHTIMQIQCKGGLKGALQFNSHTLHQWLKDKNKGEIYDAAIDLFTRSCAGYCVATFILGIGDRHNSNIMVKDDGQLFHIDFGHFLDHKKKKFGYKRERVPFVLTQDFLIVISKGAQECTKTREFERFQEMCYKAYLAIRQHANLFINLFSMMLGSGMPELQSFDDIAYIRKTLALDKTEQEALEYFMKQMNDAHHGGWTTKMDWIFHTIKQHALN
PI3K-alpha enzyme, sequence (P27986 whole entry partner): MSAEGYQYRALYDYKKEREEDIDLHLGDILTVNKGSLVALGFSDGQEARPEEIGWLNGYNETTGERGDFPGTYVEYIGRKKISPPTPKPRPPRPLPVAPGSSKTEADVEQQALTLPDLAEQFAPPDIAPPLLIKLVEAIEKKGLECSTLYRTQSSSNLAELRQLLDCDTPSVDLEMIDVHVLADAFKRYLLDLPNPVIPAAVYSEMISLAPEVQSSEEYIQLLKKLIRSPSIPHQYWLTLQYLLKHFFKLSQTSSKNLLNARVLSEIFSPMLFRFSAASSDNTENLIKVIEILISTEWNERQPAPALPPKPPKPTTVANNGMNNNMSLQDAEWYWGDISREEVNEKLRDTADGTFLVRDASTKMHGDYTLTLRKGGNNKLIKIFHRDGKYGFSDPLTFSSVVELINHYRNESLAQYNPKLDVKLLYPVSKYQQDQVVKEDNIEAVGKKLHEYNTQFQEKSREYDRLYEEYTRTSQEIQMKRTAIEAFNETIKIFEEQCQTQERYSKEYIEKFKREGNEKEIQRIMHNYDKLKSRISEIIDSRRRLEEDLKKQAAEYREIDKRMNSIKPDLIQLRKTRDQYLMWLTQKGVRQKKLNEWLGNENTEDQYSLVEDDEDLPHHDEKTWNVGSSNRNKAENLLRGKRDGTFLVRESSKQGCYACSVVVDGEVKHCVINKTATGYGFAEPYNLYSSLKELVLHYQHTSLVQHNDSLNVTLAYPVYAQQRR

**Q.** For `Nc1n[nH]c2c(N3CCOCC3)nc(-c3ccc(NC(=O)Nc4ccc(CO)c(C(F)(F)F)c4)cc3)nc12` [Compound I-5, 1-(4-(3-amino-7-morpholino-1H-pyrazolo[4,3-d]pyrimidin-5-yl)phenyl)-3-(4-(hydroxymethyl)-3-(trifluoromethyl)phenyl)urea], which IC50 is on record?
**A.** 228 nM

**Q.** With `CC1(C)C(=O)Nc2cc(NC(=O)Nc3ccc(-c4nc(N5CCOCC5)c5[nH]nc(N)c5n4)cc3)ccc21` [Compound I-4, 1-(4-(3-amino-7-morpholino-1H-pyrazolo[4,3-d]pyrimidin-5-yl)phenyl)-3-(3,3-dimethyl-2-oxoindolin-6-yl)urea] as the molecule, how does the IC50 read?
**A.** 108 nM

**Q.** `Nc1n[nH]c2c(N3CCOCC3)nc(-c3ccc(NC(=O)Nc4ccc(COCCN5CCOCC5)cc4)cc3)nc12` [Compound I-6, 1-(4-(3-amino-7-morpholino-1H-pyrazolo[4,3-d]pyrimidin-5-yl)phenyl)-3-(4-((2-morpholinoethoxy)methyl)phenyl)urea] was tested. Which IC50 did it give?
**A.** 40.9 nM

**Q.** `CC(C)(O)c1ccc(NC(=O)Nc2ccc(-c3nc(N4CCOCC4)c4[nH]nc(N)c4n3)cc2)cc1` [Compound I-2, 1-(4-(3-amino-7-morpholino-1H-pyrazolo[4,3-d]pyrimidin-5-yl)phenyl)-3-(4(2-hydroxypropan-2-yl)phenyl)urea] was tested. Which IC50 did it give?
**A.** 89.6 nM

**Q.** How did the IC50 turn out when `Nc1n[nH]c2c(N3CCOCC3)nc(-c3ccc(NC(=O)Nc4ccc(CO)cc4)cc3)nc12` [Compound I-1, 1-(4-(3-amino-7-morpholino-1H-pyrazolo[4,3-d]pyrimidin-5-yl)phenyl)-3-(4-(hydroxymethyl)phenyl)urea] was run?
**A.** 10.7 nM

**Q.** `CS(=O)(=O)NC(=O)Cc1ccc(NC(=O)Nc2ccc(-c3nc(N4CCOCC4)c4[nH]nc(N)c4n3)cc2)cc1` [Compound I-3, 2-(4-(3-(4-(3-amino-7-morpholino-1H-pyrazolo[4,3-d]pyrimidin-5-yl)phenyl)ureido)phenyl)-N-(methylsulfonyl)acetamide] was tested. Which IC50 did it give?
**A.** 89.1 nM

Source: patent US12054488B2, “Pyrazolopyrimidine compound and preparation method therefor and use thereof in preparation of anti-cancer drug” (SUZHOU RAYMON PHARMACEUTICALS COMPANY, LTD., priority 2018, dated 2024)
